The target in assay [1] is T1, Human Neuropeptide Y1 Receptors (Homo sapiens, UniProt P25929).
T1 construct: 50 μL SK-N-MC preparation containing 50 μg/tube membrane protein; host or cells: SK-N-MC human neuroblastoma cells (membranes)
T1 sequence (P25929 1-384): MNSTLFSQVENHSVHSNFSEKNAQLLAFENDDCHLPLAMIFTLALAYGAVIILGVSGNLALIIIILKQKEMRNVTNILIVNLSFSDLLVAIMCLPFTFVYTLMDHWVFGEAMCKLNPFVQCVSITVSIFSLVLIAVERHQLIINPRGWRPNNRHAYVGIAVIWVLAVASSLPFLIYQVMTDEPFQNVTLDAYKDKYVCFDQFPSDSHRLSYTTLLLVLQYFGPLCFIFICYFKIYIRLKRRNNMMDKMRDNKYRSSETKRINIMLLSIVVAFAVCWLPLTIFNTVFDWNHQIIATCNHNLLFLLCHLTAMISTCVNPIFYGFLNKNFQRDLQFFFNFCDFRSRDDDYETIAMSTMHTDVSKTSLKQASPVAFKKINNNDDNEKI
The assay is described as follows: Receptor binding: inhibition of [^125 I]Peptide YY binding to human neuropeptide Y1 receptors (SK-N-MC membranes). The method, then:
The compounds of Formula I are valuable neuropeptide Y1 antagonists. The compounds of Formula I were tested for their ability to bind to the neuropeptide Y1 receptor subtype as measured by their inhibition of [^125 I]Peptide YY to human NPY1 receptors.
Human neuroblastoma cells, SK-N-MC, obtained from American Type Culture Collection were grown in Dulbecco's modified Eagle medium (Gibco) containing 10% fetal bovine serum and 100 units per mL/100 μg/mL penicillin/streptomycin (Gibco). After cells were confluent, growth media was replaced with fresh media and cells were allowed to continue growing for an additional 24 hours. Cells were then harvested in a buffer consisting of the following: 25 mM Tris(hydroxymethyl)amino methane (Tris), pH 7.4, 6 mM MgCl2, 250 μg/mL bacitracin, 250 μg/mL aprotinin, 250 μg/mL leupeptin, 250 μg/mL 4-(2-aminoethyl)-benzenesulfonylfluoride hydrochloride (Peflabloc) (Pentapharm AG). Growth media was removed and cells were lifted from the flasks with Dulbecco's phosphate buffered saline (D-PBS) containing 0.02% ethylenediaminetetraacetic acid (EDTA). Cells were pelleted and homogenized using a polytron, and broken membranes were pelleted by centrifugation at 18,000 rpm for 10 minutes at 4° C. The pelleted membranes were resuspended in the above buffer and frozen at […].
D-PBS (Gibco) pH 7.4, containing 0.5 g/L bacitracin and […] bovine serum albumin (BSA), was used in the preparation of compound and radiolabel. Each assay tube consisted of the following: […] of compound or buffer, 100 μL[^125 I]-PYY (Peptide YY) (30 pM), and 50 μL SK-N-MC preparation containing 50 μg/tube membrane protein for a total volume of 250 μL/tube. Non-specific binding was defined by the addition of 300 nM final concentration of neuropeptide Y. After addition of all reagents, tubes were shaken while incubating for 60 minutes at room temperature. The assay was terminated by filtering through a Whatman GF/C filter previously saturated with 0.1% polyethylenimine in 10 mM Tris, pH 7.5 containing 0.1% BSA. Filters were punched from the filter mat, placed in tubes, and counted for 1 minute using a gamma counter. The Ki was determined using the Graph PAD data analysis software program.

Another assay relates to rats. The settings on record: administration into the central nervous system; cited from earlier work.
Setting [2] is: 30 pM [^125 I]-PYY, SK-N-MC membranes, 60 minutes, room temperature, pH 7.4, read-out: Inhibition of [^125 I]Peptide YY Binding to Human Neuropeptide Y1 Receptors Ki.

Like-named read-outs stand apart in the source and are kept apart here.

As to `Nc1cc(S(=O)(=O)c2ccc(O)cc2)c([N+](=O)[O-])c2cccnc12` [Example 10, 4-(8-Amino-5-nitro-quinoline-6-sulfonyl)-phenol], in assay [1] (setting [2]), the Ki was 136 nM. On the same count and under the same terms, in the case of `CC(C)(C)c1ccc(S(=O)(=O)c2cc(N)c3ncccc3c2[N+](=O)[O-])cc1` [Example 7, 6-(4-tert-Butyl-benzenesulfonyl)-5-nitro-quinolin-8-ylamine] it was 3200 nM. The same measure, in the same setting: under `Nc1cc(S(=O)(=O)c2cccc(Cl)c2Cl)c([N+](=O)[O-])c2cccnc12` [Example 26, 6-(2,3-Dichloro-benzenesulfonyl)-5-nitro-quinolin-8-ylamine] stands 93 nM; under `Nc1cc(S(=O)(=O)c2ccc(F)cc2)c([N+](=O)[O-])c2cccnc12` [Example 16, 6-(4-Fluoro-benzenesulfonyl)-5-nitro-quinolin-8-ylamine], 603 nM; under `Nc1cc(S(=O)(=O)c2c(Cl)cccc2Cl)c([N+](=O)[O-])c2cccnc12` [Example 23, 6-(2,6-Dichloro-benzenesulfonyl)-5-nitro-quinolin-8-ylamine], 273 nM. The same measure, in the same setting: under `Cc1ccc(S(=O)(=O)c2cc(N)c3ncccc3c2[N+](=O)[O-])c(C)c1` [Example 22, 6-(2,4-Dimethyl-benzenesulfonyl)-5-nitro-quinolin-8-ylamine] stands 222 nM; under `CC(=O)Nc1ccccc1S(=O)(=O)c1cc(N)c2ncccc2c1[N+](=O)[O-]` [Example 25, N-[2-(8-Amino-5-nitro-quinoline-6-sulfonyl)-phenyl]-acetamide], 590 nM. In the case of `CCc1ccccc1S(=O)(=O)c1cc(N)c2ncccc2c1[N+](=O)[O-]` [Example 18, 6-(2-Ethyl-benzenesulfonyl)-5-nitro-quinolin-8-ylamine], the Ki in assay [1] (setting [2]) was found to be 129 nM. Compound `Nc1cc(S(=O)(=O)c2ccc([N+](=O)[O-])cc2)c([N+](=O)[O-])c2cccnc12` [Example 8, 5-Nitro-6-(4-nitro-benzenesulfonyl)-quinolin-8-ylamine] registered a Ki in assay [1] of 1000 nM. For the compound `Nc1cc(S(=O)(=O)c2ccc(Cl)cc2)c([N+](=O)[O-])c2cccnc12` [Example 2, 6-(4-Chloro-benzenesulfonyl)-5-nitro-quinolin-8-ylamine], the Ki in assay [1] (setting [2]) is 1750 nM. Same read-out and setting: under `Nc1cc(S(=O)(=O)c2cccc3ccccc23)c([N+](=O)[O-])c2cccnc12` [Example 20, 6-(Naphthalene-1-sulfonyl)-5-nitro-quinolin-8-ylamine] stands 46 nM; under `Nc1cc(S(=O)(=O)c2ccccc2)c([N+](=O)[O-])c2cccnc12` [Example 1, 6-Benzenesulfonyl-5-nitro-quinolin-8-ylamine], 297 nM; under `Cc1ccc(S(=O)(=O)c2cc(N)c3ncccc3c2[N+](=O)[O-])cc1` [Example 4, 5-Nitro-6-(toluene-4-sulfonyl)-quinolin-8-ylamine], 594 nM. Same read-out and setting: under `Nc1cc(S(=O)(=O)c2cc(Cl)ccc2Cl)c([N+](=O)[O-])c2cccnc12` [Example 30, 6-(2,5-Dichloro-benzenesulfonyl)-5-nitro-quinolin-8-ylamine] stands 283 nM. Same read-out and setting: under `Cc1ccc(C)c(S(=O)(=O)c2cc(N)c3ncccc3c2[N+](=O)[O-])c1` [Example 6, 6-(2,5-Dimethyl-benzenesulfonyl)-5-nitro-quinolin-8-ylamine] stands 148 nM; under `COc1ccc(S(=O)(=O)c2cc(N)c3ncccc3c2[N+](=O)[O-])cc1` [Example 3, 6-(4-Methoxy-benzenesulfonyl)-5-nitro-quinolin-8-ylamine], 1140 nM. For `COc1ccccc1S(=O)(=O)c1cc(N)c2ncccc2c1[N+](=O)[O-]` [Example 21, 6-(2-Methoxy-benzenesulfonyl)-5-nitro-quinolin-8-ylamine], in assay [1] (setting [2]), the inhibition constant Ki turned out to be 490 nM. On the same count and under the same terms, under `COc1cccc(S(=O)(=O)c2cc(N)c3ncccc3c2[N+](=O)[O-])c1` [Example 17, 6-(3-Methoxy-benzenesulfonyl)-5-nitro-quinolin-8-ylamine] stands 311 nM. The same measure, in the same setting: under `Nc1cc(S(=O)(=O)c2ccccc2C(F)(F)F)c([N+](=O)[O-])c2cccnc12` [Example 29, 5-Nitro-6-(2-trifluoromethyl-benzenesulfonyl)-quinolin-8-ylamine] stands 84 nM.

With `Nc1cc(S(=O)(=O)c2ccc3ccccc3c2)c([N+](=O)[O-])c2cccnc12` [Example 5, 6-(Naphthalene-2-sulfonyl)-5-nitro-quinolin-8-ylamine], the inhibition constant (Ki) in assay [1] (setting [2]) was determined as 1200 nM. Still for that read-out and setting: in the case of `Cc1ccccc1S(=O)(=O)c1cc(N)c2ncccc2c1[N+](=O)[O-]` [Example 12, 5-Nitro-6-(toluene-2-sulfonyl)-quinolin-8-ylamine] it was 119 nM; in that of `Nc1cc(S(=O)(=O)c2ccccc2Br)c([N+](=O)[O-])c2cccnc12` [Example 24, 6-(2-Bromo-benzenesulfonyl)-5-nitro-quinolin-8-ylamine], 234 nM; in that of `CC(C)c1cccc(C(C)C)c1S(=O)(=O)c1cc(N)c2ncccc2c1[N+](=O)[O-]` [Example 28, 6-(2,6-Diisopropyl-benzenesulfonyl)-5-nitro-quinolin-8-ylamine], 48 nM. Same read-out and setting: in the case of `Cc1cccc(S(=O)(=O)c2cc(N)c3ncccc3c2[N+](=O)[O-])c1` [Example 9, 5-Nitro-6-(toluene-3-sulfonyl)-quinolin-8-ylamine] it was 373 nM; in that of `CC(C)c1ccccc1S(=O)(=O)c1cc(N)c2ncccc2c1[N+](=O)[O-]` [Example 19, 6-(2-Isopropyl-benzenesulfonyl)-5-nitro-quinolin-8-ylamine], 48 nM.

Consider `CC(C)(C)c1ccccc1S(=O)(=O)c1cc(N)c2ncccc2c1[N+](=O)[O-]` [Example 31, 6-(2-tert-Butyl-benzenesulfonyl)-5-nitro-quinolin-8-ylamine], for which the Ki in assay [1] (setting [2]) was determined as 1400 nM. The same measure, in the same setting: under `Cc1cccc(C)c1S(=O)(=O)c1cc(N)c2ncccc2c1[N+](=O)[O-]` [Example 14, 6-(2,6-Dimethyl-benzenesulfonyl)-5-nitro-quinolin-8-ylamine] stands 295 nM; under `Nc1cc(S(=O)(=O)c2ccccc2Cl)c([N+](=O)[O-])c2cccnc12` [Example 13, 6-(2-Chloro-benzenesulfonyl)-5-nitro-quinolin-8-ylamine], 93 nM.

With “NPY: Neuropeptide Y (NPY), involved in the control of feeding in mammals; agonist in the cAMP assay”, the effect on feeding entry with rats was “dramatic increase in feeding”. As to `Nc1cc(S(=O)(=O)c2ccccc2F)c([N+](=O)[O-])c2cccnc12` [Example 27, 6-(2-Fluoro-benzenesulfonyl)-5-nitro-quinolin-8-ylamine], the Ki in assay [1] (setting [2]) came out at 58 nM. On the same count and under the same terms, under `N#Cc1ccc(S(=O)(=O)c2cc(N)c3ncccc3c2[N+](=O)[O-])cc1` [Example 11, 4-(8-Amino-5-nitro-quinoline-6-sulfonyl)-benzonitrile] stands 854 nM. The same measure, in the same setting: in the case of `Nc1cc(S(=O)(=O)c2cccc(Cl)c2)c([N+](=O)[O-])c2cccnc12` [Example 15, 6-(3-Chloro-benzenesulfonyl)-5-nitro-quinolin-8-ylamine] it was 892 nM.

(Values after patent US5552411A, “Sulfonylquinolines as central nervous system and cardiovascular agents” (Warner-Lambert Company, priority 1995, dated 1996).)
